Assays:
[1] = system: MM.1S cells; assay: Cell viability of MM.1S cells after 24 h treatment; format: cell-based
[2] = target: USP7 catalytic domain (Homo sapiens, UniProt Q93009); assay: USP7 inhibition with isolated USP7 catalytic domain using Ub-AMC as a substrate; format: biochemical
[3] = Experimental partition coefficient; format: physicochemical
[4] = Plasma protein binding estimated by an HPLC-based method; format: in vitro ADME

USP7 catalytic domain, sequence (Q93009 214-521 limits assumed): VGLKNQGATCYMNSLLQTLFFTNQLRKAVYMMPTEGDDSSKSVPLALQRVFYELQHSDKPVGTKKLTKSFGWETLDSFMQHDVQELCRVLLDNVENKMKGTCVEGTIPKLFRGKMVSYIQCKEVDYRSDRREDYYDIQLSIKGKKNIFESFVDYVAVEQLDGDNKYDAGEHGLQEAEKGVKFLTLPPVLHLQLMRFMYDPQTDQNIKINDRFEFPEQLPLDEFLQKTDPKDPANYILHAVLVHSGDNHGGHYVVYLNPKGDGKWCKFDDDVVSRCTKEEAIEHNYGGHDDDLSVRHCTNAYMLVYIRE

Row | IC50 [2] [nM] | logD [3] | fraction unbound ([4]; plasma) | PPB ([4]; plasma protein binding, estimated by an HPLC-based method) [%] | SMILES | viability at 10 µM ([1]; Homo sapiens, MM1.S, read-out: cell viability) [%] | cell viability ([1]; remaining viability, MM.1S cells, 10 μM) [%]
1 | 32 ± 7 | 2.5 | 0.1 | – | O=C(C[C@@H](C(F)F)n1ccc(F)n1)N1CCC(O)(Cn2cnc3c(cnn3-c3ccc(F)cc3)c2=O)CC1 [Compound 2, FT671] | 41 | –
2 | – | 1.3 | – | 87 | C[C@H](CC(=O)N1CCC(O)(Cn2cnc3cc(NC(=O)CCN4CCN(C)CC4)ccc3c2=O)CC1)c1ccccc1 [Compound 3, XL188] | – | 43

Reference: paper PMC9710854 (Chemical communications (Cambridge, England), 2022)
